According to patent publication US11208415B2, “Substituted indole Mcl-1 inhibitors” (Vanderbilt University, priority 2014, dated 2021):

Target: recombinant Mcl-1 (residues 172-327) (Homo sapiens (Human), UniProt Q07820)
Experiment: Fluorescence polarization anisotropy competition assay (FITC-Bak or FITC-Bim BH3 peptide), Mcl-1
Format: binding
Conditions: FITC-labeled BH3 peptide (Bak or Bim) displacement; Ki converted from IC50; printed as range bins; read-out: Ki for Inhibition of Mcl-1

Chain of recombinant Mcl-1 (residues 172-327) (Q07820 172-327): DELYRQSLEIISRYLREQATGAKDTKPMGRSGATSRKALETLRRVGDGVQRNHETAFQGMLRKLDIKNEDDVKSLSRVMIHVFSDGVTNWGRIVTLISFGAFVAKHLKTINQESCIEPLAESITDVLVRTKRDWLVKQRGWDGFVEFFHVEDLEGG

- Ki: < 50 nM
SMILES: Cc1cc(OCCCc2c3n(c4c(-c5c(C)nn(C)c5C)c(Cl)ccc24)CCCN(c2cc(C(=O)O)c4cn(C)nc4c2)C3=O)cc(C)c1Cl [Example I-366, 6-(8-chloro-1-(3-(4-chloro-3,5-dimethylphenoxy)propyl)-1-oxo-7-(1,3,5-trimethyl-1H-pyrazol-4-yl)-4,5-dihydro-1H-[1,4]diazepino[1,2-a]indol-2(3H)-yl)-2-methyl-2H-indazole-4-carboxylic acid]
